# Measurements taken from the NIST ThermoML archive (doi:10.1016/j.fluid.2012.01.029).
# Numbers after ± are expanded uncertainties.
# Conditions: 293.15 K; 101.33 kPa; Liquid; Vibrating tube method
row,Compound,mass density [kg/m3]
1,NCCO [2-aminoethan-1-ol],1017.9 ± 0.3
2,CN(CCO)CCO [N-methyldiethanolamine],1037.7 ± 0.3
